Experimental data: US8741843B2, “Compositions and methods for inducing angiogenesis” (priority 2006, dated 2014)
Entries after “also recorded” stand apart in the source; their conditions may differ.

Experiments:
[1] = tested on: endothelial cells (HUVEC); test: Migration of endothelial cells under hypoxia (Chemicon QCM 96-well Migration Assay); assay type: cell-based, human; details: 5 hours hypoxia, 10 ng/ml
Method: FIG. 6 is a graph depicting migration of endothelial cells under hypoxia conditions. Endothelial cells (25,000) were incubated in endothelial cells growth medium free supplements in the migration chamber. ADOPep1 (SEQ ID NO:2), 2 (SEQ ID NO:3) and 3 (SEQ ID NO:4) were added to the feeder tray of the migratory kit at 1, 10 and 100 ng/ml for 5 hours hypoxia. Results were determined by a fluorescence ELISA reader and expressed as increase in percentage migration in Relative fluorescence Units.
FIGS. 26a-b are graphs depicting induction of endothelial cell migration under hypoxia by the ADOPEP motifs. Endothelial cells were incubated for 5 hours under hypoxia conditions in the presence of increasing concentrations of ADOPep1 (red line), peptide motif A (dark blue line), peptide motif B (green line) or peptide motif C (light blue line) and the migration of endothelial cells was detected. FIG. 26a—experiment 1; FIG. 26b—experiment 2.
Endothelial cell migration was evaluated by the Chemicon QCM 96-well Migration Assay (Chemicon International, Calif., USA) according to manufacturer's instructions. This kit utilizes a membrane with an 8 μm pore size. Migratory cells on the bottom of the insert membrane are dissociated from the membrane when incubated with cell detachment buffer provided by the kit. […] For the migration assay, HUVEC from passage 3 were incubated in endothelial cell (EC) growth medium free of supplements. After trypsinization, 25,000 EC were incubated in the migration chamber. ADOPeps were added at concentrations of 1, 10 and 100 ng/ml in the feeder tray for chemoattractant migration assay. Time of incubation was 5 hours for endothelial cells under hypoxic conditions. Results were determined in a Fluorescent ELISA reader at 480/520 nm.

endothelial cells = test: Hypoxia-induced apoptosis of endothelial cells (Annexin V FITC/PI FACS); assay type: cell-based, human; details: for effect on hypoxia-induced apoptosis of endothelial cells / percent apoptosis (PI/Annexin V): 24 hours hypoxia; for effect on hypoxia-induced apoptosis of endothelial cells: peptides 10 ng/ml; for percent apoptosis (PI/Annexin V): FIGS. 24a-d, hypoxia alone 79.3%
Method: FIG. 17 is a histogram depicting the effect of ADOPep1 on hypoxia-induced apoptosis of endothelial cells. Endothelial cells were exposed for 24 hours hypoxia in the presence of endothelial cell growth medium supplemented with 5% fetal calf serum (FCS), followed by incubation under hypoxia conditions with ADOPep1 (10 ng/ml) or anti-GRP78 antibody (100 ng/ml). Cells (100,000/tube) were incubated with Annexin-V FITC/PI for endothelial cell apoptosis determination. […] Similarly, anti-GRP78 antibody induced a reduction in apoptosis up to 32%.
FIGS. 24a-d are FACS analyses depicting hypoxia induced apoptosis. Endothelial cells were incubated for 24 hours under hypoxia conditions in the absence (FIG. 24a) or presence of 10 ng/ml of ADOPepe1 (FIG. 24b), peptide of Motif A (FIG. 24c) or peptide of motif C (FIG. 24d) and the level of apoptosis was determined using FACS analysis and the PI (shown on the Y axis)/Annexin V (shown on the X axis) markers.
FIG. 25 is a bar graph depicting the inhibition of hypoxia induced apoptosis by ADOPep 1, Motif A and Motif B. Endothelial cells were incubated for 24 hours under hypoxia conditions in the absence or presence of 10 ng/ml of ADOPepe1, Motif A, Motif B or motif C and the level of apoptosis was determined using FACS analysis and quantified as the percent of Annexin V and PI positive cells. The results represent average±standard deviation of 4 independent experiments.
FIGS. 33a-f are representative FACS analyses depicting a specific inhibition of hypoxia-induced apoptosis of endothelial cells by ADOPep1. Endothelial cells in Petri dishes were incubated for 24 hours with 5% FCS in supplement-free endothelial cell growth medium under normoxia (FIGS. 33a and d), exposed to 24 hours hypoxia (Figures c and f) or incubated under normoxia with 100 micromolar per 100,000 cells CoCl2 (FIGS. 33b and e), in the absence (FIGS. 33a-c) or presence (FIGS. 33d-f) of 10 ng/ml Adopep1 peptide (for 24 hours). Cells were trypsinized and immediately re-suspended in PBS with 5% FCS and 0.1% Na-azide. Samples containing 100,000 cells were tested for apoptosis using the Annexin-FITC (X axis) and propidium iodide (Y axis) kit (Bender Medsystems, Vienna, Austria), according to manufacturer's instructions. Results were analyzed by FACScan (Beckton Dickinson).
EC were incubated for 24 hours with 5% FCS in EC growth media in Petri dishes plates followed by 24 hours incubation under hypoxia conditions with ADOPep1 (10 ng/ml), anti GRP78 antibody (Santa Cruz Biotechnology, Calif., USA) (1 microgram/ml) or recombinant VEGF (10 ng/ml). The Annexin V FITC/PI detects the phosphatidylserin on the apoptotic cells using flow cytometry. Human Annexin V-FITC kit (Bender Medsystems, Vienna, Austria) was used for the measurement of EC apoptosis percentage following manufacturer's instructions. Samples were analyzed using a fluorescence activated cell sorter (FACScan Beckton Dickinson, Calif., USA).

[2] = target: T1, GRP78 on endothelial cells (Homo sapiens, UniProt P11021); test: FACS competition of peptides with GRP78 polyclonal antibody on endothelial cells under hypoxia; assay type: binding; details: hypoxic conditions; for inhibition of anti GRP78 binding to endothelial cells: ten micrograms of peptide
T1 construct: endogenous in cells; host or cells: HUVEC / endothelial cells from umbilical cords, under normoxia or hypoxia
Method: Endothelial cells were cultured for 24 hours under hypoxic conditions in endothelial cell growth medium. Cells were removed by trypsin and incubated for 1 hour on ice with increasing concentrations of AdoPep1, Motif A and Motif C peptides. GRP78 polyclonal antibody (2 μg/100,000) was added to the cells for 2 hours on ice. Anti-goat FITC (Jackson ImmunoResearch) was added for 30 minutes on ice. IgG1-FITC was used as the isotype control. The samples were analyzed with a FACScan (Beckton Dickinson). […] FIG. 28d depicts the average percent binding of GRP78 to endothelial cells as a function of peptide amount as determined by 2 independent experiments.

T1 sequence (P11021 19-654): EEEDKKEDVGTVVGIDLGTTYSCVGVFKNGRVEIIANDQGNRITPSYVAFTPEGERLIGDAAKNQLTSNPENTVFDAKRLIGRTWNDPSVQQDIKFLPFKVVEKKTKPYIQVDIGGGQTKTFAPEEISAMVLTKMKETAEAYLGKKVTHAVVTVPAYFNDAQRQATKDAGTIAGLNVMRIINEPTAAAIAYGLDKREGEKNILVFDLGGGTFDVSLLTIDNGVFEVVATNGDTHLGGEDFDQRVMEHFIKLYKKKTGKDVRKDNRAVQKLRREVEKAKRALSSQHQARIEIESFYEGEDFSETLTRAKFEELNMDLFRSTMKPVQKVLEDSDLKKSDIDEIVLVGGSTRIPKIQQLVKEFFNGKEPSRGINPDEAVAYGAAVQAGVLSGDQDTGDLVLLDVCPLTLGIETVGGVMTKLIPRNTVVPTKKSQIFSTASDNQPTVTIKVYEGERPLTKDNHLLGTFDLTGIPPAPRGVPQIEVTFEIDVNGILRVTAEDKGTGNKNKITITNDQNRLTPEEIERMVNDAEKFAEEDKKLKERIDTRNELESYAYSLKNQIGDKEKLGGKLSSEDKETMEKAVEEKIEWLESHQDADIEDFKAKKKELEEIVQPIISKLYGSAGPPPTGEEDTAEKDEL

inhibition of anti GRP78 binding to endothelial cells [2] | Substance | migration of endothelial cells [1] | migration of endothelial cells ([1]; listed as ADOPep 1) | effect on hypoxia-induced apoptosis of endothelial cells (endothelial cells) | more efficient in decreasing apoptosis as compared to the anti-GRP78 antibody (endothelial cells; FIG. 17, hypoxia) | percent apoptosis of endothelial cells (Annexin-V/PI) (endothelial cells; FIG. 17, hypoxia, ADOPep1 10 ng/ml, anti-GRP78 antibody 100 ng/ml) | inhibition of hypoxia induced apoptosis (endothelial cells; FIG. 34, 24 hours hypoxia, 10 ng/ml) | percent apoptosis (PI/Annexin V) (endothelial cells; 10 ng/ml) | inhibition of anti GRP78 binding to endothelial cells (in words) [2]
approximately 80% | HWRRAHLLPRLP [ADOPep1, ADAM15 derived peptide, amino acids 286-297 of the metalloprotease domain] | most significant increase in EC migration; also recorded: induced endothelial cell migration | induced increase in percent of migration | prevented apoptosis to levels which are similar to those seen under normoxic conditions; also recorded: capable of inhibiting the hypoxia induced apoptosis; also recorded: remarkable decrease in the stained cells; also recorded: significant inhibition of hypoxia induced apoptosis; also recorded: a significant fraction of hypoxia-induced apoptosis was inhibited | 29% | 25% | approximately 40% | 28.6% | inhibit the binding of GRP78 to endothelial cells
~60% | HWRRP [Motif A, 5 amino acid motif peptide] | induced endothelial cell migration | – | capable of inhibiting the hypoxia induced apoptosis; also recorded: significant inhibition of hypoxia induced apoptosis | – | – | – | 35.8% | inhibit the binding of GRP78 to endothelial cells
